Melting point data for 89 compounds are collected here from a melting point compilation (Tetko et al.; mined from patent text by program, amines drawn as free bases though some values may be those of a salt).

Where only a bound is given, the exact number is not on record here.

Take `CCCN(C)C(C)CN1CCc2c(c(=O)oc3cc(OC)ccc23)C1` (centres undefined): the melting point (in general, the temperature of the solid-liquid transition) lay within 69 to 71 °C. Next, `O=C(OC1CCN(Cc2ccccc2)CC1)c1ccccc1I`: 73 to 74 °C; `CSc1nn2c(N3C[C@@H](C)N[C@@H](C)C3)cc(C)nc2c1S(=O)(=O)c1ccccc1`: 220 to 221 °C. Next, `c1ccc(CN2C[C@@H]3Cc4cc5ccccc5n4C[C@@H]3C2)cc1` (relative stereo): 91 to 93 °C. Next, `CCn1c(=O)n(Cc2ccccc2)c(=O)c2c(Cl)cc(Cl)cc21`: 78 to 82 °C. The compound `CCOC(=O)c1cn(N=C(C)C)c2c(F)c(F)c(F)cc2c1=O` showed a melting point of 166 °C. Compound `COc1ccc(Oc2nc(Nc3cccc(C(=O)O)c3)nc(Oc3ccccc3)n2)cc1` yielded a melting point of 233 to 236 °C. The value for `O=C(CO)NNc1ccnc2c(NC(=O)c3c(Cl)cccc3Cl)cccc12` was 248 to 250 °C; that for `O=C(O)c1cc(Br)c(O)c(Br)n1` was 195 to 197 °C. Next, `COCCCN(C(=O)N(CCCl)N=O)C1(O)COC(OCC(C)C)C(O)C1O` (centres undefined): 67 to 69 °C. As for `CCN(C(=O)CN(C(=O)CNC(=O)Nc1cccc(C)c1)c1ccccc1)c1ccccc1`, the melting point amounted to 158 °C. The value for `O=C(c1ccccc1)n1c2cc(O)c(O)cc2c2cc(O)c(O)cc21` was 287 to 292 °C. The value for `O=C1NNC2=CC(=O)N(c3ccccc3)c3cc(Cl)ccc3N12` was 110 to 112 °C; that for `O=CNCC1CN(c2c(F)cc3c(=O)c(C(=O)O)cn(-c4ccc(F)cc4F)c3c2F)CCO1` (centres undefined) was 230 to 233 °C; that for `COC(=O)c1ccc(C(=O)N2CCN(c3ncccc3NCC(C)C)CC2)nc1` was 82 to 84 °C. `CC(=S)NC[C@H]1CN(c2ccc(-c3nc(Cn4cccn4)cs3)c(F)c2)C(=O)O1`: the melting point lay within 166 to 168 °C. The value for `CCCCC[C@H]1CC[C@H](c2ccc(-c3ccc(C#N)cc3)cc2)CC1` was 93 °C; that for `CCCCCCCCOc1ccc(Cl)c2c(=O)c3ccccc3sc12` was 86 to 87.5 °C; that for `C=Cc1nnc2ccc3ccccc3n12` was 117 to 118 °C. Take `COc1ccc(C2Sc3c(ccc4ccccc34)N(CCN(C)C)C(=O)C2OC(=O)c2ccc(OC)c(OC)c2)cc1` (centres undefined): the melting point lay within 182 to 183 °C. Take `COc1ccc(N2CCN(C(=S)C3(C)CCc4c(C)c(O)c(C)c(C)c4O3)CC2)cc1` (centres undefined): the melting point fell in the range of 120 to 121 °C.

In the case of `O=C1CCc2cc(Cl)c([N+](=O)[O-])cc21`, the melting point is 110 to 113 °C. The value for `CN(C=O)CNC(=O)c1snc(Cl)c1Cl` was 87 to 88 °C; that for `CCCSN(C)C(=O)Nc1ccc(Cl)c(Cl)c1` was 40 °C; that for `N#Cc1cncc(I)c1Cl` was 120 to 122 °C. Next, `CCOC(=O)C1C(=O)C=C(OCC)CC1c1ccc(C)cc1` (centres undefined): 75 to 77 °C; `C=CCc1cc(NC(C)=O)ccc1OCC1(O)CN2CCC1CC2` (centres undefined): 170 to 172 °C. In turn, `Brc1ccc(N2CCC(Cc3ccccc3)CC2)nc1` yielded a melting point of 78 °C.

In turn, `CC1=CC(O)C(OC(=O)c2ccccc2)C(C)(C)CC1=O` (centres undefined) had a melting point of 99 to 100 °C.

As to `COc1ccc(CN(C)CCc2ccc(NC(=O)c3cccc4c(=O)c5cccc(C)c5[nH]c34)cc2)cc1OC`, the melting point was 119 °C. The value for `Cn1nc(-c2cc(CBr)c(Cl)cc2F)c(Cl)c1C(F)(F)F` was 112 to 114 °C; that for `O=C(O)c1csc(Br)n1` was 227 to 229 °C.

Regarding `N#Cc1ccc(C=O)c(N2CCCC2)c1`, the melting point turned out to be 121 °C. Next, `CCOC(=O)Cc1ccc(SCc2ccc(Cl)cc2C(=O)O)cc1`: 109 to 112 °C; `CC1CC(=O)C=C(N)C1` (centres undefined): 165 to 169 °C. The value for `CS(=O)(=O)c1c(C(=O)NN=Cc2cccc3ccccc23)[nH]c2ccccc12` was greater than 250 °C; that for `COc1cc(Cc2nc(NCC(C)C)c3c(C)c(C#N)sc3n2)cc(OC)c1OC` was 129 to 131 °C.

`O=[N+]([O-])c1ccccc1Nc1ccccc1F` gave a melting point of 58 to 59 °C. Next, `O=C1N(c2ccc(Cl)cc2Cl)Cc2cnc(Nc3ccccc3)nc2N1c1ccc(CO)cc1`: 121 to 125 °C. Next, `CCOC(=O)C(C)c1ccc(C(=O)c2ccc(Cl)cc2)n1C` (centres undefined): 67 to 68 °C; `Fc1ccc2c(c1)NCc1c(-c3noc(C4CC4)n3)ncn1-2`: 263 to 265 °C; `CC(C)(C(=O)Nc1ccc(Cl)cc1)/C(F)=C\F`: 100 °C.

For `CC1Cc2cccc(S(N)(=O)=O)c2O1` (centres undefined), the melting point fell in the range of 174 to 177 °C. Next, `NC(=O)c1ccc(-c2ccc3nnn(Cc4ccc5ncccc5c4)c3n2)cc1C(F)(F)F`: 230 to 232 °C; `OC1CCCc2nc3cc(Cl)ccc3c(NCc3ccccc3)c21` (centres undefined): 163 °C. The value for `Cn1ccc2c3c(c(I)cc21)C(=O)NC3=O` was 322 to 325 °C; that for `CC(C)(C)OC(=O)Nc1ccc(-c2ccc(F)cc2F)cc1NC(=O)CC(=O)c1ccnc(C#N)c1` was 160 to 161 °C. `CC(C#N)(C(N)=O)c1cccc(Oc2ccccc2)c1` (centres undefined) returned a melting point of 123 to 125 °C. The value for `CCNc1nc(Cc2ccc(OC)c(OC)c2)nc2sc(C#N)c(C)c12` was 125 to 126 °C; that for `CN(Cc1ccc(Cl)c(Cl)c1)C(=O)C1=C(O)C(=O)N(C2CC2)C1` was 163 to 164 °C; that for `O=C(NCc1ccccn1)c1ccc(N2CCN(C(=O)c3ccccc3C(F)(F)F)CC2)nn1` was 179 to 181 °C. `COC(=O)C1=C(C)Nc2ccccc2NC1c1ccccc1[N+](=O)[O-]` (centres undefined) showed a melting point of 190 to 192 °C. Next, `CCNC(=O)NNC(=O)c1ccc(Cl)cc1`: 237 to 239 °C. Next, `CNC(=NS(C)(=O)=O)NCCCSc1ncc(Br)c(NC(N)=NCC(F)(F)F)n1`: 166 to 167 °C. Next, `COc1ccc2c(c1F)CSCC2=O`: 85 to 92 °C; `C=CCOc1ccc2cc(O)ccc2c1`: 92 to 93 °C; `O=C(C=C(O)c1ccccc1O)c1cn(S(=O)(=O)c2ccccc2)c2ccc(Cl)cc12`: 241 to 244 °C. The compound `Oc1ccc(-c2cc3ccccc3[nH]2)cc1` returned a melting point of 224 to 229 °C. The value for `CCCCc1nc2cc(Cl)cc(C(=O)O)c2n1Cc1ccc(-c2ccccc2-c2nnn[nH]2)cc1` was 232 to 234 °C; that for `COc1ccc(OC)c(C(=O)/C=C/c2ccc3c(c2)OCO3)c1` was 101 °C; that for `COC(=S)CCc1cc(C(C)(C)C)cc(C(C)(C)C)c1O` was 55 to 55.5 °C.

With `O=Cc1ccc(OCC2CN(Cc3ccccc3)c3ccccc3O2)cc1` (centres undefined), the melting point is 92 to 94 °C. For the compound `CCOC(=O)c1cc2ccc([Si](C)(C)C)cc2[nH]1`, the melting point was in the range of 127 to 129 °C. The value for `COc1ccc(Oc2cn(C)cc(-c3cccc(C(F)(F)F)c3)c2=O)cc1` was 119 to 120 °C; that for `CNC(=NC#N)NCCCSc1nccc(NC(N)=NCC(F)(F)F)n1` was 159 to 160 °C; that for `O=C(Nc1ccc(S(=O)(=O)c2ccccc2)cc1)C(O)(C(F)F)C(F)F` was 105 to 108 °C. Next, `Cc1cc(CO)nc2cc3c(cc12)OC(C)(C)[C@H](O)[C@H]3NCCc1ccc(F)cc1` (relative stereo): 147 to 152 °C; `Cc1nnc2n1-c1ccccc1C(c1ccc(Cl)cc1)=NN2Cc1ccc(N)cc1`: 234 to 237 °C. The value for `Clc1ccc(CCC(Cn2ccnc2)SCc2ccco2)cc1` (centres undefined) was 97 to 98 °C.

As for `COC(=O)c1cnc(N2CCN(CC3CC3)C2=O)s1`, the melting point was in the range of 124 to 126 °C. The value for `COc1cc(C(=O)N2CCC(CCN3CCC(Nc4nc5ccccc5n4Cc4ccccn4)CC3)(c3ccc(F)cc3)C2)cc(OC)c1OC` (centres undefined) was 110 to 119 °C; that for `CC(C)N1CCC(Oc2ccc3[nH]ncc3c2)CC1` was 125 to 126 °C; that for `COC(=O)n1c(SCc2ccccn2)nc2ccccc21` was 78 °C.

The compound `CC(C)n1nc(-c2sc(N)nc2-c2ccc(F)cc2)ccc1=O` came in with a melting point of 256 to 257 °C. `COc1cc2cc(CO)c(CO)c(-c3cccc(-n4c(=O)ccc5ccccc54)n3)c2cc1OC` yielded a melting point of 142 to 143 °C. The value for `c1ccc2c(c1)CCc1ccccc1C2Nc1ccncc1` was 263 to 264 °C; that for `CCN(CC)CCOc1ccc(-c2sc3ccccc3c2C(=O)c2cc(C)cc(C)c2)cc1` was 138 to 142 °C. The value for `Cc1nc(N2CCN(Cc3ccc(F)cc3)C2=O)sc1C(=O)NCc1csc(C(C)C)n1` was 170 to 172 °C. The value for `O=C(CNC(=O)[C@@H]1CCCN1)Nc1ccc([N+](=O)[O-])cc1C(=O)c1ccccc1` was 165 to 167 °C; that for `COCOc1ccc(C=CC(=O)c2ccc(OCc3ccccc3)cc2OC(C)=O)c(OCc2ccccc2)c1` was 94 to 96 °C; that for `COC(=O)CC(=O)Nc1cccc(S)c1` was 52 to 54 °C.

Take `CCc1cccc(CC(=O)O)c1OCCn1cc(C(=O)NCc2ccc(Cl)cc2Cl)c(OC(C)C)n1`: the melting point was 125 to 126 °C.

As to `CCNS(=O)(=O)c1ccc(Cl)c(C)c1C#N`, the melting point was in the range of 85 to 90 °C.

For `CNC1CCN(c2c(F)cc3c(=O)c(C(=O)O)cn(C4CC4)c3c2C)CC1C` (centres undefined), the melting point lay in the range of 233 to 235 °C. The value for `CCc1cc(Oc2ccc([N+](=O)[O-])cc2C(F)(F)F)nn1C(=O)NC` was 97 to 100 °C; that for `CCc1cc(C(=O)Nc2cc(Oc3ccc4nc(NC(=O)C5CC5)cn4n3)ccc2F)n(C)n1` was 236 °C.

Consider `O=C(Nc1ccccc1)OC(c1cccnc1)C(Cl)(Cl)Cl` (centres undefined), for which the melting point was determined as 146 °C. Next, `CCOC(=O)C(=O)Nc1ccc(Cl)cc1[N+](=O)[O-]`: 156 to 157 °C. `c1ccc2c(c1)CCN(Cc1n[nH]c3c1CCc1ccccc1-3)C2`: the melting point lay in the range of 180 to 182 °C.
